Measured values published in patent US20130178449A1, “2-Methylene-20(21)-Dehydro-19,24,25,26,27-Pentanor-Vitamin D Analogs” (WISCONSIN ALUMNI RESEARCH FOUNDATION, priority 2011, published 2013).
pEC50, pKi: −log10 of the molar value. Like-named read-outs stand apart in the source and are kept apart here.

Experiments:
[1] = Intestinal calcium transport (everted gut sac) in vitamin D-deficient rats; type: in vivo, rat; conditions: ip, 4 consecutive days
Method: (§1) Male, weanling Sprague-Dawley rats were placed on Diet 11 (0.47% Ca) diet+AEK oil for one week followed by Diet 11 (0.02% Ca)+AEK oil for 3 weeks. The rats were then switched to a diet containing 0.47% Ca for one week followed by two weeks on a diet containing 0.02% Ca. Dose administration began during the last week on 0.02% calcium diet. Four consecutive ip doses were given approximately 24 hours apart. Twenty-four hours after the last dose, blood was collected from the severed neck and the concentration of serum calcium determined as a measure of bone calcium mobilization. The first 10 cm of the intestine was also collected for intestinal calcium transport analysis using the everted gut sac method.

[2] = test system: 24-hydroxylase (24Ohase) gene promoter; experiment: In vitro transcription assay (24-hydroxylase promoter luciferase reporter in ROS 17/2.8 bone cells); type: cell-based; conditions: for pEC50: ROS 17/2.8 cells, 24-hydroxylase gene, FIG. 3, read-out: EC50, transcriptional activity in bone cells
Method: Transcription activity was measured in ROS 17/2.8 (bone) cells that were stably transfected with a 24-hydroxylase (24Ohase) gene promoter upstream of a luciferase reporter gene (Arbour et al., 1998). Cells were given a range of doses. Sixteen hours after dosing the cells were harvested and luciferase activities were measured using a luminometer.
RLU=relative luciferase units.

[3] = Bone calcium mobilization (serum calcium) in vitamin D-deficient rats; type: in vivo, rat; conditions: ip, 4 consecutive days, rats on 0.02% Ca diet
Method: as §1

HL-60 cells = experiment: HL-60 differentiation (nitro blue tetrazolium reduction); type: cell-based, human; conditions: for pEC50: HL-60 cells into monocytes, FIG. 2, read-out: EC50, HL-60 cell differentiation
Method: The study drugs were dissolved in ethanol and the concentrations determined using UV spectrophotometry. Serial dilutions were prepared so that a range of drug concentrations could be tested without changing the final concentration of ethanol (≦0.2%) present in the cell cultures.
Human promyelocytic leukemia (HL60) cells were grown in RPMI-1640 medium containing 10% fetal bovine serum. The cells were incubated at 37° C. in the presence of 5% CO2.
HL60 cells were plated at 1.2×10^5 cells/ml. Eighteen hours after plating, cells in duplicate were treated with drug. Four days later, the cells were harvested and a nitro blue tetrazolium reduction assay was performed (Collins et al., 1979; J. Exp. Med. 149:969-974). The percentage of differentiated cells was determined by counting a total of 200 cells and recording the number that contained intracellular black-blue formazan deposits. Verification of differentiation to monocytic cells was determined by measuring phagocytic activity (data not shown).

[4] = biological target: T1, full-length recombinant rat vitamin D receptor (Rattus norvegicus, UniProt P13053); experiment: Vitamin D receptor binding (competition with [3H]-1,25(OH)2D3)
T1 construct: Full-length recombinant rat receptor was expressed in E. coli BL21 (DE3) Codon Plus RIL cells; histidine tag (C); made in house; host or cells: E. coli BL21 (DE3) Codon Plus RIL
T1 sequence (P13053 1-423): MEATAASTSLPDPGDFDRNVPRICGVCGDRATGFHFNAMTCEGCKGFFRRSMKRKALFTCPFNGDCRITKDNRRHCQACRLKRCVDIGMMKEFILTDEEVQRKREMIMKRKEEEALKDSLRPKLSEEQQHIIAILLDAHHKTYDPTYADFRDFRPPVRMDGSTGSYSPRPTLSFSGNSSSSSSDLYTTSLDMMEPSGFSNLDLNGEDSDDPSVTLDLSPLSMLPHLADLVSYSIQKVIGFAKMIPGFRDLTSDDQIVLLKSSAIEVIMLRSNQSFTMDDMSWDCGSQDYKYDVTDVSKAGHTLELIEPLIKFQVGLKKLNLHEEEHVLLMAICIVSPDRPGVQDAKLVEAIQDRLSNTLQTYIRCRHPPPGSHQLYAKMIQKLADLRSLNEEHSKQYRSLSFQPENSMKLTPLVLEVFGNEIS
Method: Full-length recombinant rat receptor was expressed in E. coli BL21 (DE3) Codon Plus RIL cells and purified to homogeneity using two different column chromatography systems. The first system was a nickel affinity resin that utilizes the C-terminal histidine tag on this protein. The protein that was eluted from this resin was further purified using ion exchange chromatography (S-Sepharose Fast Flow). Aliquots of the purified protein were quick frozen in liquid nitrogen and stored at −80° C. until use. For use in binding assays, the protein was diluted in TEDK50 (50 mM Tris, 1.5 mM EDTA, pH7.4, 5 mM DTT, 150 mM KCl) with 0.1% Chaps detergent. The receptor protein and ligand concentration were optimized such that no more than 20% of the added radiolabeled ligand was bound to the receptor.
Radiolabeled and unlabeled ligands were added to 100 mcl of the diluted protein at a final ethanol concentration of ≦10%, mixed and incubated overnight on ice to reach binding equilibrium. The following day, 100 mcl of hydroxylapatite slurry (50%) was added to each tube and mixed at 10-minute intervals for 30 minutes. The hydroxylapaptite was collected by centrifugation and then washed three times with Tris-EDTA buffer (50 mM Tris, 1.5 mM EDTA, pH 7.4) containing 0.5% Titron X-100. […] Total binding was determined from the tubes containing only radiolabeled ligand.

| VDR binding activity relative to 1α,25-dihydroxyvitamin D3 ([4]; compared to native hormone) | pKi ([4]; full-length recombinant rat VDR, FIG. 1) | pEC50 (HL-60 cells; Homo sapiens) | Compound | intestinal calcium transport ([1]; 260 pmol/day) | pEC50 [2] | bone calcium mobilization (serum calcium) ([3]; 260 pmol/day) | pEC50 (HL-60 cells) | intestinal calcium transport ([1]; 7020 pmol/day) | intestinal calcium transport ([1]; 35100 pmol/day) | times less potent than 1,25(OH)2D3 in increasing transcription of the 24-hydroxylase gene ([2]; bone cells, compared to 1,25(OH)2D3) [times] | bone calcium mobilization (serum calcium) ([3]; 7020 pmol/day) | bone calcium mobilization (serum calcium) ([3]; 35100 pmol/day) | times less potent than 1,25(OH)2D3 on HL-60 cell differentiation (HL-60 cells; compared to 1,25(OH)2D3) |
| --- | --- | --- | --- | --- | --- | --- | --- | --- | --- | --- | --- | --- | --- |
|  |  |  | C=C1/C(=C\C=C2/CCC[C@]3(C)[C@@H]([C@H](C)CCCC(C)(C)O)CC[C@@H]23)C[C@@H](O)C[C@@H]1O [1,25(OH)2D3, 1α,25-dihydroxyvitamin D3, reference compound] | significant increase | 9.70 | increased serum calcium levels | 8.52 |  |  |  |  |  |  |
| about one-half log less active | 10.10 | 7.52 | C=C1[C@H](O)CC(=C/C=C2\CCC[C@]3(C)[C@@H](C(=C)CC)CC[C@@H]23)C[C@H]1O [MDBE 20, 2-methylene-20(21)-dehydro-19,24,25,26,27-pentanor-1α-hydroxyvitamin D3] |  | 8.40 |  |  | does not promote intestinal calcium transport | does not promote intestinal calcium transport | 10 | did not result in mobilization of bone calcium | no substantial effect was seen | about 10 times |
